Values of other authors in US12285410B2, “Combination comprising HDAC inhibitor and CD137 agonist for cancer therapy” (4SC AG, priority 2018, dated 2025).

Assays:
[1] = system: different types of blood cancer; settings: 24 heavily pre-treated patients

| Compound | immunologic and pharmacodynamic activity (at 0.1 mg/kg every 3 weeks) | tolerability (at 0.1 mg/kg every 3 weeks) | treatment-related AE: fatigue (at 0.1 mg/kg every 3 weeks) [%] | treatment-related AE: nausea (at 0.1 mg/kg every 3 weeks) [%] | maximum tolerated dose (every 3 weeks) [mg/kg] | complete remission (one patient), duration [1] [months] | disease control, share of patients [1] [%] | long-term stabilization, share of patients [1] [%] | partial responder (one patient), duration [1] [months] | tolerability [1] |
| --- | --- | --- | --- | --- | --- | --- | --- | --- | --- | --- |
| Urelumab | immunologic and pharmacodynamic activity demonstrated by the induction of IFN-inducible genes and cytokines | relatively well tolerated | 16 | 13 | 0.1 |  |  |  |  |  |
| Cn1cc(-c2ccc(S(=O)(=O)n3ccc(/C=C/C(=O)Nc4ccccc4N)c3)cc2)cn1 [Compound 4SC-202, (E)-N-(2-aminophenyl)-3-(1-((4-(1-methyl-1H-pyrazol-4-yl)phenyl)sulfonyl)-1H-pyrrol-3-yl)acrylamide] |  |  |  |  |  | 28 | 83 | 50 | 8 | well tolerated with few and/or manageable adverse events |
